Assay results from patent publication US20140350050A1, “PYRIDINE COMPOUNDS AS INHIBITORS OF KINASE” (TELIGENE LTD., priority 2011, published 2014).
Where two headings read alike, the source gives them in different places.

Tests used:
[1] = system: EML4-ALK-BAF3 cell line xenograft; type: in vivo; settings: Table C, 40 mg/kg oral gavage once daily
Excerpt: A representative protocol for the in vivo experiment is as followed to establish the subcutaneous EML4-ALK-BAF3 cell line xenograft model in nude mice and to evaluate the in vivo therapeutic efficacy of the compounds: Animals: Male Balb/c nude mice (6˜8 weeks old) were obtained from SLAC Laboratory Animal, Shanghai, China. Animals were maintained under SPF conditions in sterile filter top cages and housed on HEPA-filtered ventilated racks. Animals received sterile rodent chow and water ad libitum. Cell line: BAF3-EML4-ALK stable cell line, the BAF3 cell which could expressed fusion oncogene EML4-ALK. S.c. Xenograft Models in Athymic Mice: Cells for implantation into athymic mice were harvested and pelleted by centrifugation at 1200 r/min for 5 min. Cells were washed once and resuspended in sterile PBS buffer with 5×10^6 in 200 μl. Then cells were implanted s.c. into the right scapular region of each mouse and allowed to grow to 200˜300 mm^3 before the administration of compound. Preparation of the Dose Formulation: each compound was suspensioned in 0.5% CMC-Na. Randomization: When tumor volumes approach 200˜300 mm^3, the mice will be randomized into 5 groups according to the tumor volume. The day will be denoted as D1 and the treatments will be started at this day. Administered: Dose will be administered with oral gavage needle once daily for number of days. Treatment of compounds administered in 0.5% CMC-Na by p.o. gavage was initiated when tumors were 200˜300 mm^3 in volume. Observations: After inoculation, the animals will be checked daily for morbidity and mortality. At the time of routine monitoring, the animals will be checked for any effects of tumor growth and treatments on normal behavior such as mobility, body weight gain/loss (body weights will be measured twice weekly or every other day), eye/hair matting and any other abnormal effect. Death and observed clinical signs will be recorded on the basis of the numbers of animals within each subset. Tumor Size Measurements: Tumor volume was determined by measurement with electronic vernier calipers every 3 days and tumor volume was calculated as the product of its length×width^2×0.5. Effect studies: Tumor volume was expressed on indicated days as the mean tumor volume ±SD. […] Significant differences between the treated versus the control groups (p<0.05) were determined using t test. At study endpoint, after blood collection, mice were practiced euthanasia by cervical dislocation, the tumor tissue was collected first, then abdominal cavity was cut open, liver and spleen were excised, then weight after the gallblader was removed respectively. Organ weight and Organ/body weight ratios between the treated versus the control groups were compared. Ratios was calculated as follows: Ratios=Organ weight/(body weight-tumor weight). Both organ weight and Organ/body weight ratios were also expressed as mean±SD, and significant differences between the treated versus the control groups (p<0.05) were determined using t test.

[2] = PK (pharmacokinetic) study in rat, cassette dosing; type: in vivo; settings: male, Wistar, plasma
Protocol: A representative protocol for the PK (pharmacokinetic) is as followed: Animals used were Wistar rat, male and weight about 300-359 grams. Compound 21 and 22 were given either IV or oral to the same animals by cassette dosing. The dose for each compound is 1 mg/kg (volume 5 ml/kg) IV and 2 mg/kg (volume 10 ml/kg) oral. The formulation for IV was in PBS, the pH is adjusted by dilute HCl until compounds were totally dissolved. 0.5% Na-CMC suspension was used for the oral formulation. Sample collection: for IV route, plasma sample were collected at the time point 0.083, 0.25, 0.5, 1, 1.5, 2, 4, 6, 8, 12, 24 h. For oral route, plasma sample were collected at the time point 0.167, 0.33, 0.5, 1, 2, 4, 6, 8, 12, 24 h. Analysis: LC-MS/MS is used to calculate PK parameters: t1/2, tmax, Cmax, Vss and AUC etc.

AUC(0-inf) ([2]; IV cassette 1 mg/kg): 337 ng·h/mL | AUC(0-t) ([2]; IV cassette 1 mg/kg): 336 ng·h/mL | Cmax ([2]; IV cassette 1 mg/kg): 259 ng/mL | MRT ([2]; IV cassette 1 mg/kg): 3.11 h | Tmax ([2]; IV cassette 1 mg/kg): 0.083 h | clearance ([2]; IV cassette 1 mg/kg): 49.5 mL/min/kg | half-life ([2]; IV cassette 1 mg/kg): 3.04 h | AUC(0-inf) ([2]; oral cassette 2 mg/kg): 146 ng·h/mL | AUC(0-t) ([2]; oral cassette 2 mg/kg): 140 ng·h/mL | Cmax ([2]; oral cassette 2 mg/kg): 21 ng/mL | MRT ([2]; oral cassette 2 mg/kg): 5.28 h | Tmax ([2]; oral cassette 2 mg/kg): 4 h | half-life ([2]; oral cassette 2 mg/kg): 3.1 h | bioavailability ([2]; oral cassette 2 mg/kg vs IV 1 mg/kg, read-out: F (bioavailability)): 20.8%
Compound: [2H]C([2H])([2H])C([2H])([2H])N1CCC(n2cc(-c3cnc(N)c(O[C@H](C)c4c(Cl)ccc(F)c4Cl)c3)cn2)CC1 [Compound 22, (R)-3-(1-(2,6-dichloro-3-fluorophenyl)ethoxy)-5-(1-(1-d5-ethylpiperidin-4-yl)-1H-pyrazol-4-yl)pyridin-2-amine]
Tumor growth inhibition (TGI, %) ([1]; day 2): 22.58% | Tumor growth inhibition (TGI, %) ([1]; day 5): 53.72% | Tumor growth inhibition (TGI, %) ([1]; day 8): 66.61% | Tumor growth inhibition (TGI, %) ([1]; day 11): 82.97% | Tumor growth inhibition (TGI, %) ([1]; day 14): 87.64%
